Results on ten compounds are retold here after US20250082648A1, “COMPOSITIONS AND METHODS FOR ENHANCING KRAS INHIBITOR OR SHP2 INHIBITOR EFFICACY” (New York University, priority 2023, published 2025).

One data set relates to YAP1. Nature of the data set: YAP1 and DAPI immunofluorescence (YAP1 nuclear localization). It is filed as cell-based. The source says:
[…]. […] Datasets (color-coded) used for pathway analysis are indicated at right with the sizes of the circles indicating statistical significance. […]. All immunofluorescence images are representative of three independent experiments. Scale bar=20 μm.
. FIG. 4B is a bubble plot showing pathways (p<0.05) enriched in SL genes (FDR<0.1). Datasets used for analysis are color-coded at right; the sizes of the circles indicate significance level. FIG. 4C is a Circos plot illustrating the overlap of SL genes (FDR<0.1) between lines. […]. FIGS. 10C-10D show quantification of YAP nuclear localization in presence of ROCK-I, in data from FIGS. 3G-3H. *p<0.05, 1-way ANOVA with Tukey's multiple comparisons test.

A further data set has as its system H2122 cells. To be noted: individual H2122 data (top); MRTX-849 vs vehicle 48 hr.
The test system of another data set is YAP. Nature of the data set: YAP1 immunofluorescence (nuclear localization). It counts as cell-based, human. The procedure:
Immunofluorescence. […]. Cells were then fixed in 4% paraformaldehyde for 10 minutes at room temperature, rinsed three times for 5 min. each in PBS, and permeabilized in 0.1% Triton X-100/5% FBS in PBS for a 1 hr at RT. […] Nuclei were stained with DAPI (BioLegend, Cat #: 422801) for 5 min, and slides were washed two more times in PBS before mounting with Fluorescence Mounting Medium (Dako, Cat #: S3023). Images were acquired with a Zeiss 880 Laser Scanning Confocal Microscope (Axio Observer) equipped with Zen 3.0 software (ZEN blue, Carl Zeiss Inc.) and were processed by Fiji software (NIH).

The test system of the next data set is NSCLC lines. Nature of the data set: Cell viability and proliferation assays (CCK8, trypan blue counts, Bliss analysis). It is filed as cell-based, human. To be noted: for effect on MRTX-849 action: multiple NSCLC lines, including those not STK11 and/or KEAP1 mutant. The procedure:
Cell viability and proliferation assays. […] Media (including inhibitors) were replaced every two days. Dose-response curves were generated using the […] Cell Counting Kit-8 (CCK8) assay (Enzo, ALX-850-039-KI02). Three hours after addition of CCK-8 reagent to cells, A450 was recorded using a FlexStation 3 multi-mode microplate reader according to the manufacturer's instructions. IC50s were calculated with GraphPad Prism. For all other proliferation assays, cells were harvested and stained with trypan blue (#T8154, Sigma-Aldrich), and viable (trypan blue-excluding) cells were quantified with a Countless II automated cell counter (Invitrogen).

Data set [1] concerns H2030 cell-derived xenografts. The experiment in a line: H2030 cell-derived xenografts in nu/nu mice. It is filed as in vivo, mouse. To be noted: MRTX-849 100 mg/kg/d, 30 days of treatment; VT104 10 mg/kg/d.
Experimental: (§1) For syngeneic tumor experiments, KCL cells (10^6 in 200 ml PBS) were injected subcutaneously into the right flanks of male C57BL/6J mice (Jackson Laboratory). For xenografts, H2030 cells (5×10^6) were injected subcutaneously into the right flanks of Crl:NU-Foxn1nu/nu mice (Charles River, #088) with a 1:1 mixture of cell suspension in Matrigel (Corning, Cat #354234). […] Mice were weighed two times a week prior to dosing and throughout the study. Tumors were measured in 2 dimensions (length and width) twice a week and volumes (mm^3) were calculated as (length×width^2)/2).
For data set [2], the system named is KCL syngeneic tumor grafts. The experiment in a line: KCL syngeneic tumor grafts in C57BL/6J mice. It counts as in vivo, mouse. The settings on record: MRTX-849 100 mg/kg/d, 30 days of treatment; VT104 10 mg/kg/d.
Experimental: as §1
The conditions of data set [3]: preliminary results; cited from earlier work.
The next data set deals with KCL cells. The experiment in a line: Cell viability and proliferation assays (CCK8, trypan blue counts). To be noted: combined with MRTX-849 at its IC50 dose.
Another data set relates to KCL lung tumors. Nature of the data set: KCL GEMM (KRAS G12C; Stk11 fl/fl, Ad-Cre) long-term treatment, MRI monitoring. The settings on record: MRTX849 100 mg/kg/d plus SHP099 75 mg/kg/d; resistant tumors soon recurred.

Experimental for H2122 cells: Bulk RNA-seq was performed on total RNA from cell lines or isolated tumor cells by the PCC Genome Technology Center Shared Resource (GTC). Libraries were prepared with the Illumina TruSeq Stranded Total RNA Sample Preparation Kit and sequenced on an Illumina NovaSeq 6000 platform utilizing 150-bp paired end reads. Sequencing data were de-multiplexed and transformed into FASTQ format by using Illumina bcl2fastq software. […] Briefly, sequencing results were transformed into FASTQ format by using Illumina bcl2fastq software. Reads were adapter- and quality-trimmed using Trimmomatic before alignment with the human or mouse genome using the splice-aware STAR aligner. Using featureCounts (49), counts for each gene were created based on the number of aligned reads overlapping its exons. These counts were standardized and subsequently evaluated for differential expression via the DESeq2 R package, using negative binomial generalized linear models. Lastly, the Enrichr tool was employed for pathway analysis of the bulk RNA-seq data.

On to `C=C(F)C(=O)N1CCN(c2nc(OC[C@@H]3CCCN3C)nc3c2CCN(c2cccc4cccc(Cl)c24)C3)C[C@@H]1CC#N` [MRTX-849, adagrasib], for which the “nuclear translocation of YAP” value with YAP1 (H2030, H2122, H23, MiaPaca2 cells, MRTX-849 at IC50) is “induces RHO/ROCK-dependent nuclear translocation of YAP”. The “PSAP RNA-seq, column median2” value in the data set with H2122 cells turned out to be 0.7802. Besides, in the data set with YAP (H2030 cells), the “levels of nuclear YAP” value is “increased”, the “time at which nuclear YAP increase begins” value was 4 h and the “time at which nuclear YAP peaks” value was 24 to 48 h. As for `C[C@@H](NC(=O)c1ccc2c(-c3ccc(C(F)(F)F)cc3)cccc2c1)c1cccc(N)n1` [VT106], the “effect on drug sensitivity” value in the data set with NSCLC lines (inactive analog control) is recorded as “no effect”. Turning to `C[C@H](NC(=O)c1ccc2c(-c3ccc(C(F)(F)F)cc3)cccc2c1)c1ccccn1` [VT104], the tumor response result in data set [1] and in data set [2] was “minimal” throughout. As for `C[C@@H](N)[C@H]1CC[C@H](C(=O)Nc2ccncc2)CC1` [Y-27632], in the data set with YAP1 (NSCLC lines, MRTX-849 at IC50 with or without Y-27632 (10 μM)), the “MRTX-849-induced YAP1 nuclear localization” value is on record as “impairs MRTX-849-induced YAP1 nuclear localization”. For `C[C@H](CO)NC(=O)c1ccc2c(Oc3ccc(C(F)(F)F)cc3)cccc2c1` [VT3989], the “safety in phase 1 clinical trial” value in data set [3] is listed as “safe with manageable toxicity”.

With `C[C@H](NC(=O)c1ccc2c(-c3ccc(C(F)(F)F)cc3)cccc2c1)c1ccccn1` [VT-104], the “IC50 in YAP1 over-expressing cells” value with KCL cells is “higher”. For the same compound, in the data set with NSCLC lines (NSCLC lines, vs single agent or two drug-combinations, all at reduced doses), the “effect on efficacy of combination MRTX849/TNO-155” value is “increased the efficacy”. Also, in the data set with NSCLC lines, the “effect on MRTX-849 action” value was “synergistically augmented”. For `C=C(F)C(=O)N1C[C@@H](Nc2ncccn2)[C@H](OCc2ccc(C(F)(F)F)cc2)C1` [MYF-03-176], in the data set on KCL cells, the “IC50 in YAP1 over-expressing cells” value is “higher”.

For the compound `CC1(N)CCN(c2cnc(-c3cccc(Cl)c3Cl)c(N)n2)CC1` [SHP099], the “response of tumors recurred after prolonged MRTX-849 treatment” value in the data set on KCL lung tumors is “partial responses”.

Take `C=CC(=O)N1C[C@@H](n2cc(-c3cccnc3)nn2)[C@H](OCc2ccc(C(F)(F)F)cc2)C1` [MYF-03-69]: the “effect on MRTX-849 action” value with NSCLC lines is listed as “synergistically augmented”.

`C[C@@H](N)[C@H]1CC[C@H](C(=O)Nc2ccncc2)CC1` [Y27632]: the “effect of addition on MRTX-849 efficacy” value in the data set with NSCLC lines (two cell lines tested) was “increased MRTX-849 efficacy”. Moreover, the “YAP nuclear translocation induced by MRTX treatment” value is “inhibited” in the data set with YAP (MRTX treatment for 24 hr plus ROCK inhibitor) and “to an even greater extent” in the data set on YAP (after 48h of treatment plus ROCK inhibitor).
